Assay results as given in patent US11306092B2, “Amino indole compounds useful as TLR inhibitors” (BRISTOL-MYERS SQUIBB COMPANY, priority 2017, dated 2022).

What was measured:
Format in all cases: cell-based
human TLR9 = biological target: T1, human TLR9 (Homo sapiens, UniProt Q9NR96); assay: TLR9 inhibition reporter assay (HEK-Blue SEAP reporter); details: HEK-Blue cells overexpressing human TLR9; ODN2006 5 nM; 22 hour incubation
T1 construct: host or cells: HEK-Blue cells
T1 sequence (Q9NR96 26-1032): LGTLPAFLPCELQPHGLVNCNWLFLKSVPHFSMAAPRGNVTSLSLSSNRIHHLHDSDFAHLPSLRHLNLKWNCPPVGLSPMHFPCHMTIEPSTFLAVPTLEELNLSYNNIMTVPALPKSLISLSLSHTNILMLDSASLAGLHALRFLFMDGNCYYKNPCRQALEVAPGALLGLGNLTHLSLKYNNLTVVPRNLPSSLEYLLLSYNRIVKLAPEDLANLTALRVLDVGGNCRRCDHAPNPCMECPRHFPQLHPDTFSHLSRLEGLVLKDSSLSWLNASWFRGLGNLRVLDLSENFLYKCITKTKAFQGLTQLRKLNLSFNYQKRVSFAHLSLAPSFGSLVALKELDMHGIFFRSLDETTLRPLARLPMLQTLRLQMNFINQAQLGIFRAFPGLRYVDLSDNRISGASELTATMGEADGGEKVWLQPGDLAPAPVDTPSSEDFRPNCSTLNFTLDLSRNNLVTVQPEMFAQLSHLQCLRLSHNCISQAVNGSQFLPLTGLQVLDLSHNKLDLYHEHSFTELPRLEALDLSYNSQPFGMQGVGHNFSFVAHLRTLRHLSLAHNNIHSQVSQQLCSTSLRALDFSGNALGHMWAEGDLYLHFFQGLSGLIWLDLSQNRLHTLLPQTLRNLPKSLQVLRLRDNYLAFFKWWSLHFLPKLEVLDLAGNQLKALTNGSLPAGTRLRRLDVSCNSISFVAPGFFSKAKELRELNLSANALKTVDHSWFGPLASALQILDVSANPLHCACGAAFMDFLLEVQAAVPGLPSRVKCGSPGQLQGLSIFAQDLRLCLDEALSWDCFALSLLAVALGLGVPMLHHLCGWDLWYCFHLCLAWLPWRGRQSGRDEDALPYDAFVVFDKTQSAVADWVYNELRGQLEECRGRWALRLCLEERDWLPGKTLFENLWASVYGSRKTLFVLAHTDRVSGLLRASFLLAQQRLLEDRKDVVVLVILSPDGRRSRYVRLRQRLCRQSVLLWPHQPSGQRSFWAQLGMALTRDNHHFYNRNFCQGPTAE
Summary of the method: (§1)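 HEK-Blue cells overexpressing human TLR7, TLR8 or TLR9 carry a SEAP reporter driven by NF-κB/AP-1 sites. Compounds (0.05 nM–50 μM) were preincubated 30 min at room temperature, then cells were stimulated with gardiquimod 7.5 μM (TLR7), R848 15.9 μM (TLR8) or ODN2006 5 nM (TLR9) for 22 h at 37 °C.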

human TLR8 = biological target: T2, human TLR8 (Homo sapiens, UniProt Q9NR97); assay: TLR8 inhibition reporter assay (HEK-Blue SEAP reporter); details: HEK-Blue cells overexpressing human TLR8; R848 15.9 μM; 22 hour incubation
T2 construct: host or cells: HEK-Blue cells
T2 sequence (Q9NR97 27-1041): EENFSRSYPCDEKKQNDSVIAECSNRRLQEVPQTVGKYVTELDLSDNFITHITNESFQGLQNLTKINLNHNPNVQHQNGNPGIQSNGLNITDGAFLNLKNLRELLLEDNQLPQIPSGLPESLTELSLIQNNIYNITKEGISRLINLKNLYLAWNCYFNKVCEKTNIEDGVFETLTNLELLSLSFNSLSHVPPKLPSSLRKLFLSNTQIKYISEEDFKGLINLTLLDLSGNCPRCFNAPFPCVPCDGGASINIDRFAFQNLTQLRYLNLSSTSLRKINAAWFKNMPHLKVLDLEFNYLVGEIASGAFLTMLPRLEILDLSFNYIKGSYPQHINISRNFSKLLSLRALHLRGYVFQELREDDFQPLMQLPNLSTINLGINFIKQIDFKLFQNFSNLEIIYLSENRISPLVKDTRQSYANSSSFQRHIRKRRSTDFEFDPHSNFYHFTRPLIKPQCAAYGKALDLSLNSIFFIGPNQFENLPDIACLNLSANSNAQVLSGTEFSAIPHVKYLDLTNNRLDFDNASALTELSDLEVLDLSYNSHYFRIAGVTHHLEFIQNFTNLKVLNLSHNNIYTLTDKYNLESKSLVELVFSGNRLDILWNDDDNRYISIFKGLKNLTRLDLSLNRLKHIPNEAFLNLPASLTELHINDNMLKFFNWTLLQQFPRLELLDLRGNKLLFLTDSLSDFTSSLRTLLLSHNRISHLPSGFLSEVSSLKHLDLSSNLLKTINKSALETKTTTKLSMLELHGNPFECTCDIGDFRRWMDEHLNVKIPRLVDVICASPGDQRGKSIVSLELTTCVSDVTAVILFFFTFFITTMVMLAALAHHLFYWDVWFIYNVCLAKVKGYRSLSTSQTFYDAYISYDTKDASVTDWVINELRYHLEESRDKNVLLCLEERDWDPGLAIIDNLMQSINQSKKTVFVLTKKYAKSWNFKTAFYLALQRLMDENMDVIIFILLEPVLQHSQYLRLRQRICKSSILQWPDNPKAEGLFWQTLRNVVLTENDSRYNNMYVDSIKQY
Summary of the method: as §1

human TLR7 = biological target: T3, human TLR7 (Homo sapiens, UniProt Q9NYK1); assay: TLR7 inhibition reporter assay (HEK-Blue SEAP reporter); details: HEK-Blue cells overexpressing human TLR7; gardiquimod 7.5 μM; 22 hour incubation
T3 construct: host or cells: HEK-Blue cells
T3 sequence (Q9NYK1 27-1049): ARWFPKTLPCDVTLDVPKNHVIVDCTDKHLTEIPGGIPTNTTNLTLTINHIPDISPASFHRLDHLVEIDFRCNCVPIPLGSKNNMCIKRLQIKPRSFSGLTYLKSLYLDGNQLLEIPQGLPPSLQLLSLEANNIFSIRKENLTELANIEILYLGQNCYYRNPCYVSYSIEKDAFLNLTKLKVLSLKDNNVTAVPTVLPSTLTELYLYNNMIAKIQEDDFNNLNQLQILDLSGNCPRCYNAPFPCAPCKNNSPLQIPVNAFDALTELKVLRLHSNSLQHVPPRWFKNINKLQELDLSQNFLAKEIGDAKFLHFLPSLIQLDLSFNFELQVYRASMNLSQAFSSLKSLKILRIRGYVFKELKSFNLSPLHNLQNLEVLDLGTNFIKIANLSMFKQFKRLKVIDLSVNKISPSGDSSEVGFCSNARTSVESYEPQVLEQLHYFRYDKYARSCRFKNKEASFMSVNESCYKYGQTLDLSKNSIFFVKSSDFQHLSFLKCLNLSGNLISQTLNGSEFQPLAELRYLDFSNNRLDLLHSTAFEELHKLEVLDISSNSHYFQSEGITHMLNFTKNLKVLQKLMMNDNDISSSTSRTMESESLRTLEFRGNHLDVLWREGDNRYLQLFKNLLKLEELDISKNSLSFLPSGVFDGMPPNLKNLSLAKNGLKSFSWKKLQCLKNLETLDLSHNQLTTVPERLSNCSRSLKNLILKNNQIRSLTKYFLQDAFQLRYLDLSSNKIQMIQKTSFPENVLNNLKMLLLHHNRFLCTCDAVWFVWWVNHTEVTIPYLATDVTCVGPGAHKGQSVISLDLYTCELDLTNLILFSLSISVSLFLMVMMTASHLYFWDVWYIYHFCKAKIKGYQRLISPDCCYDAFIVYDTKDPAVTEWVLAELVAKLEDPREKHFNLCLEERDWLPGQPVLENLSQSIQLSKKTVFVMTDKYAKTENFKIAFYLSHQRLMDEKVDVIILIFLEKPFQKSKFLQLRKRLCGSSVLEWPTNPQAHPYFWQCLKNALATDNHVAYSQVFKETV
Summary of the method: as §1

Row | SMILES | IC50 (human TLR9) | IC50 (human TLR8) | IC50 (human TLR7)
1 | CCc1c(-c2ccnc(OC)c2)[nH]c2ccc(N3CCN(C4CCN(CC(C)C)CC4)CC3)cc12 [Example 160, 3-ethyl-5-(4-(1-isobutylpiperidin-4-yl)piperazin-1-yl)-2-(2-methoxypyridin-4-yl)-1H-indole] | 470 nM | 14 nM | 106 nM
2 | CCc1c(-c2ccnc(OC)c2)[nH]c2ccc(N3CCN(C4CC(C)(C)NC(C)(C)C4)CC3)cc12 [Example 161, 3-ethyl-2-(2-methoxypyridin-4-yl)-5-(4-(2,2,6,6-tetramethylpiperidin-4-yl)piperazin-1-yl)-lH-indole] | 243 nM | 8.1 nM | 63 nM
3 | COc1ccc(-c2[nH]c3ccc(N4CCN(C5CCN(C)CC5)CC4)cc3c2C(C)C)cc1OC [Example 162, 2-(3,4-dimethoxyphenyl)-3-isopropyl-5-(4-(1-methylpiperidin-4-yl)piperazin-1-yl)-1H-indole] | 935 nM | 7.9 nM | 30 nM
4 | CCc1c(-c2ccc(OC)c(OC)c2)[nH]c2ccc(N3CCN(C4CCN(CC)CC4)CC3)cc12 [Example 163, 2-(3,4-dimethoxyphenyl)-3-ethyl-5-(4-(1-ethylpiperidin-4-yl)piperazin-1-yl)-1H-indole] | 709 nM | 9.3 nM | 68 nM
5 | COc1ccc(-c2[nH]c3ccc(N4CCN(C5CCN(C(C)C)CC5)CC4)cc3c2C)cc1OC [Example 164, 2-(3,4-dimethoxyphenyl)-5-(4-(1-isopropylpiperidin-4-yl)piperazin-1-yl)-3-methyl-1H-indole] | 577 nM | > 50000 nM | 7090 nM
6 | CCc1c(-c2ccnc3c2ccn3C)[nH]c2ccc(N3CCN(C4CCN(C(C)C)CC4)CC3)cc12 [Example 165, 4-(3-ethyl-5-(4-(1-isopropylpiperidin-4-yl)piperazin-1-yl)-1H-indol-2-yl)-1-methyl-H-pyrrolo[2,3-b] pyridine] | 685 nM | 9400 nM | 5900 nM
7 | CC(C)c1c(-c2ccnc3[nH]ccc23)[nH]c2ccc(N3CCN(C4CCN(C(C)C)CC4)CC3)cc12 [Example 166, 4-(3-isopropyl-5-(4-(1-isopropylpiperidin-4-yl)piperazin-1-yl)-1H-indol-2-yl)-1H-pyrrolo[2,3-b]pyridine] | 318 nM | 0.05 nM | 6.2 nM
8 | CC(C)c1c(-c2ccnc3[nH]ncc23)[nH]c2ccc(N3CCN(C4CCN(C(C)C)CC4)CC3)cc12 [Example 168, 4-(3-isopropyl-5-(4-(1-isopropylpiperidin-4-yl)piperazin-1-yl)-1H-indol-2-yl)-1H-pyrazolo[3,4-b]pyridine] | 259 nM | 48000 nM | > 50000 nM
9 | CCc1c(-c2ccc(OC)c(OC)c2)[nH]c2ccc(N3CCN(C4CCN(C(C)C)CC4)CC3)cc12 [Example 169, 2-(3,4-dimethoxyphenyl)-3-ethyl-5-(4-(1-isopropylpiperidin-4-yl)piperazin-1-yl)-1H-indole] | 442 nM | 10 nM | 61 nM
10 | COc1ccc(-c2[nH]c3ccc(N4CCN(C5CCN(CC(C)C)CC5)CC4)cc3c2C)cc1OC [Example 170, 2-(3,4-dimethoxyphenyl)-5-(4-(1-isobutylpiperidin-4-yl)piperazin-1-yl)-3-methyl-1H-indole] | 465 nM | 48400 nM | 19100 nM
11 | COc1ccc(-c2[nH]c3ccc(N4CCN(C5CC(C)(C)NC(C)(C)C5)CC4)cc3c2C)cc1OC [Example 171, 2-(3,4-dimethoxyphenyl)-3-methyl-5-(4-(2,2,6,6-tetramethylpiperidin-4-yl)piperazin-1-yl)-1H-indole] | 379 nM | 32200 nM | 8990 nM
12 | CCc1c(-c2ccc(OC)c(OC)c2)[nH]c2ccc(N3CCN(C4CCN(C)CC4)CC3(C)C)cc12 [Example 172, 2-(3,4-dimethoxyphenyl)-5-(2,2-dimethyl-4-(1-methylpiperidin-4-yl)piperazin-1-yl)-3-ethyl-1H-indole] | 478 nM | 131 nM | 96 nM
13 | CCc1c(-c2cc(OC)nc(OC)c2)[nH]c2ccc(N3CCN(C4CCN(C(C)C)CC4)CC3)cc12 [Example 173, 2-(2,6-dimethoxypyridin-4-yl)-3-ethyl-5-(4-(1-isopropylpiperidin-4-yl)piperazin-1-yl)-1H-indole] | 673 nM | 9.8 nM | 59 nM
14 | Cc1cc2[nH]c(-c3ccnc4[nH]ncc34)c(C(C)C)c2cc1N1CCN(C2CCN(C(C)C)CC2)CC1 [Example 175, 4-(3-isopropyl-5-(4-(1-isopropylpiperidin-4-yl)piperazin-1-yl)-6-methyl-1H-indol-2-yl)-1H-pyrazolo[3,4-b]pyridine] | 261 nM | 11 nM | 7.5 nM
15 | CCc1c(-c2ccc(OC)c(OC)c2)[nH]c2ccc(N3CCN(C4CC(C)(C)NC(C)(C)C4)CC3)cc12 [Example 176, 2-(3,4-dimethoxyphenyl)-3-ethyl-5-(4-(2,2,6,6-tetramethylpiperidin-4-yl)piperazin-1-yl)-1H-indole] | 866 nM | 28 nM | 68 nM
